Measured values: publication PMC8398255, “Synthesis of 3,5-Bis(trifluoromethyl)phenyl-Substituted Pyrazole Derivatives as Potent Growth Inhibitors of Drug-Resistant Bacteria” (Molecules, 2021)
≈ marks a conversion by molar mass, not a printed value.

Legend:
S. aureus strains = experiment: MIC against S. aureus strains; format: cell-based, Staphylococcus aureus; details: for times more effective than vancomycin and daptomycin: against S. aureus strains
Description: (§1) Compounds were dissolved in dimethyl sulfoxide (DMSO) to achieve a starting concentration of 32 µg/mL as described by us previously. Compounds were further diluted two-fold across the 96-well honeycomb plate columns in cation adjusted Mueller Hinton broth (CAMHB), and bacterial culture was added. Plates were incubated for 18–20 h at 35 ℃ before determining the minimum concentrations at which wells had no visible turbidity to the naked eye. The MIC values were determined from at least a duplicate result obtained from three independent experiments using fresh bacterial cultures on different days.

[1] = test system: E. faecalis ATCC 29212 (Ef12); experiment: MIC, microdilution (CLSI); format: cell-based; details: Enterococcus faecalis, ATCC29212; Ef12, antibiotic susceptible E. faecalis ATCC 29212; n = 3; read-out: MIC
Description: as §1

[2] = test system: S. epidermidis ATCC 700296 (Se); experiment: MIC, microdilution (CLSI); format: cell-based; details: Staphylococcus epidermidis, ATCC700296; Se, S. epidermidis ATCC 700296; n = 3; read-out: MIC
Description: as §1

[3] = test system: E. faecalis ATCC 51299 (Ef99); experiment: MIC, microdilution (CLSI); format: cell-based; details: Enterococcus faecalis, ATCC 51299 / VRE; Ef99, vancomycin-resistant (VRE) E. faecalis ATCC 51299; n = 3; read-out: MIC
Description: as §1

[4] = test system: S. aureus ATCC 25923 (Sa23); experiment: MIC, microdilution (CLSI); format: cell-based; details: Staphylococcus aureus, ATCC25923; Sa23, antibiotic susceptible S. aureus ATCC 25923; n = 3; read-out: MIC
Description: as §1

[5] = test system: S. aureus ATCC 700699 (Sa99); experiment: MIC, microdilution (CLSI); format: cell-based; details: Staphylococcus aureus, ATCC700699; Sa99, methicillin-resistant S. aureus ATCC 700699; n = 3; read-out: MIC
Description: as §1

[6] = test system: E. faecium ATCC 700221 (Ef21); experiment: MIC, microdilution (CLSI); format: cell-based; details: Enterococcus faecium, ATCC 700221 / VRE; Ef21, vancomycin-resistant (VRE) E. faecium ATCC 700221; n = 3; read-out: MIC
Description: as §1

[7] = test system: Bacillus subtilis ATCC 6623 (Bs); experiment: MIC, microdilution (CLSI); format: cell-based; details: ATCC6623; Bs, Bacillus subtilis ATCC 6623; n = 3; read-out: MIC
Description: as §1

[8] = test system: S. aureus BAA-2312 (Sa12); experiment: MIC, microdilution (CLSI); format: cell-based; details: Staphylococcus aureus, BAA2312; Sa12, methicillin-resistant S. aureus BAA-2312; n = 3; read-out: MIC
Description: as §1

[9] = test system: S. aureus ATCC 33591 (Sa91); experiment: MIC, microdilution (CLSI); format: cell-based; details: Staphylococcus aureus, ATCC33591; Sa91, methicillin-resistant S. aureus ATCC 33591; n = 3; read-out: MIC
Description: as §1

[10] = test system: S. aureus ATCC 33592 (Sa92); experiment: MIC, microdilution (CLSI); format: cell-based; details: Staphylococcus aureus, ATCC33592; Sa92, methicillin-resistant S. aureus ATCC 33592; n = 3; read-out: MIC
Description: as §1

Gram-positive bacteria = experiment: MIC across the tested strains; format: cell-based; details: for MIC: across the tested strains
Description: as §1

Row | SMILES | MIC (S. aureus strains; Staphylococcus aureus, S. aureus strains, including MRSA) [mg/L] | MIC [1] [mg/L] | MIC [2] [mg/L] | MIC [3] [mg/L] | MIC [4] [mg/L] | MIC [5] [mg/L] | MIC [6] [mg/L] | MIC [7] [mg/L] | MIC [8] [mg/L] | MIC [9] [mg/L] | MIC [10] [mg/L] | antibacterial activity (Gram-positive bacteria; tested bacteria) | MIC (Gram-positive bacteria) [mg/L] | times more effective than vancomycin and daptomycin (S. aureus strains)
1 | CC(C)c1ccc(NCc2cn(-c3ccc(C(=O)O)cc3)nc2-c2cc(C(F)(F)F)cc(C(F)(F)F)c2)cc1 [Compound 2, 4-[3-[3,5-Bis(trifluoromethyl)phenyl]-4-[(4-isopropylanilino)methyl]pyrazol-1-yl] benzoic acid] | 1 to 2 (≈ 1.83 to 3.65 µM) | 2 (≈ 3.65 µM) | 2 (≈ 3.65 µM) | 1 (≈ 1.83 µM) | 2 (≈ 3.65 µM) | 2 (≈ 3.65 µM) | 1 (≈ 1.83 µM) | 1 (≈ 1.83 µM) | 1 (≈ 1.83 µM) | 1 (≈ 1.83 µM) | 1 (≈ 1.83 µM) | – | – | –
2 | O=C(O)c1ccc(NCc2cn(-c3ccc(C(=O)O)cc3)nc2-c2cc(C(F)(F)F)cc(C(F)(F)F)c2)cc1 [Compound 13, 4-[[3-[3,5-Bis(trifluoromethyl)phenyl]-1-(4-carboxyphenyl)pyrazol-4-yl]methylamino] benzoic acid] | – | > 32 | > 32 | > 32 | > 32 | > 32 | > 32 | > 32 | 32 (≈ 58.2 µM) | > 32 | > 32 | eliminated the activity | – | –
3 | Cc1cc(NCc2cn(-c3ccc(C(=O)O)cc3)nc2-c2cc(C(F)(F)F)cc(C(F)(F)F)c2)ccc1F [Compound 14, 4-[3-[3,5-Bis(trifluoromethyl)phenyl]-4-[(4-fluoro-3-methyl-anilino)methyl]pyrazol-1-yl] benzoic acid] | – | 2 (≈ 3.72 µM) | 4 (≈ 7.44 µM) | 2 (≈ 3.72 µM) | 2 (≈ 3.72 µM) | 2 (≈ 3.72 µM) | 1 (≈ 1.86 µM) | 1 (≈ 1.86 µM) | 1 (≈ 1.86 µM) | 2 (≈ 3.72 µM) | 1 (≈ 1.86 µM) | – | ≥ 1 | –
4 | Cc1ccc(NCc2cn(-c3ccc(C(=O)O)cc3)nc2-c2cc(C(F)(F)F)cc(C(F)(F)F)c2)cc1Cl [Compound 15, 4-[3-[3,5-Bis(trifluoromethyl)phenyl]-4-[(3-chloro-4-methyl-anilino)methyl]pyrazol-1-yl] benzoic acid] | – | 2 (≈ 3.61 µM) | 2 (≈ 3.61 µM) | 2 (≈ 3.61 µM) | 2 (≈ 3.61 µM) | 2 (≈ 3.61 µM) | 1 (≈ 1.81 µM) | 1 (≈ 1.81 µM) | 1 (≈ 1.81 µM) | 1 (≈ 1.81 µM) | 2 (≈ 3.61 µM) | – | ≥ 1 | –
5 | Cc1cc(NCc2cn(-c3ccc(C(=O)O)cc3)nc2-c2cc(C(F)(F)F)cc(C(F)(F)F)c2)ccc1Br [Compound 16, 4-[3-[3,5-Bis(trifluoromethyl)phenyl]-4-[(4-bromo-3-methyl-anilino)methyl]pyrazol-1-yl] benzoic acid] | – | 1 (≈ 1.67 µM) | 2 (≈ 3.34 µM) | 2 (≈ 3.34 µM) | 1 (≈ 1.67 µM) | 2 (≈ 3.34 µM) | 1 (≈ 1.67 µM) | 1 (≈ 1.67 µM) | 1 (≈ 1.67 µM) | 1 (≈ 1.67 µM) | 1 (≈ 1.67 µM) | – | ≥ 1 | –
6 | O=C(O)c1ccc(-n2cc(CNc3ccc(F)c(F)c3)c(-c3cc(C(F)(F)F)cc(C(F)(F)F)c3)n2)cc1 [Compound 17, 4-[3-[3,5-Bis(trifluoromethyl)phenyl]-4-[(3,4-difluoroanilino)methyl]pyrazol-1-yl] benzoic acid] | – | 4 (≈ 7.39 µM) | 4 (≈ 7.39 µM) | 4 (≈ 7.39 µM) | 2 (≈ 3.69 µM) | 2 (≈ 3.69 µM) | 2 (≈ 3.69 µM) | 1 (≈ 1.85 µM) | 2 (≈ 3.69 µM) | 2 (≈ 3.69 µM) | 2 (≈ 3.69 µM) | – | 1 to 4 (≈ 1.85 to 7.39 µM) | –
7 | O=C(O)c1ccc(-n2cc(CNc3ccc(Cl)c(Cl)c3)c(-c3cc(C(F)(F)F)cc(C(F)(F)F)c3)n2)cc1 [Compound 19, 4-[3-[3,5-Bis(trifluoromethyl)phenyl]-4-[(3,4-dichloroanilino)methyl]pyrazol-1-yl] benzoic acid] | – | 1 (≈ 1.74 µM) | 1 (≈ 1.74 µM) | 1 (≈ 1.74 µM) | 1 (≈ 1.74 µM) | 2 (≈ 3.48 µM) | 1 (≈ 1.74 µM) | 1 (≈ 1.74 µM) | 0.5 (≈ 0.871 µM) | 0.5 (≈ 0.871 µM) | 1 (≈ 1.74 µM) | – | ≥ 0.5 | up to 4 times
8 | O=C(O)c1ccc(-n2cc(CNc3cc(Cl)cc(Cl)c3)c(-c3cc(C(F)(F)F)cc(C(F)(F)F)c3)n2)cc1 [Compound 20, 4-[3-[3,5-Bis(trifluoromethyl)phenyl]-4-[(3,5-dichloroanilino)methyl]pyrazol-1-yl] benzoic acid] | – | 1 (≈ 1.74 µM) | 2 (≈ 3.48 µM) | 1 (≈ 1.74 µM) | 1 (≈ 1.74 µM) | 1 (≈ 1.74 µM) | 1 (≈ 1.74 µM) | 1 (≈ 1.74 µM) | 1 (≈ 1.74 µM) | 0.5 (≈ 0.871 µM) | 1 (≈ 1.74 µM) | – | ≥ 0.5 | up to 4 times
9 | O=C(O)c1ccc(-n2cc(CNc3ccc(F)c(C(F)(F)F)c3)c(-c3cc(C(F)(F)F)cc(C(F)(F)F)c3)n2)cc1 [Compound 22, 4-[3-[3,5-Bis(trifluoromethyl)phenyl]-4-[[4-fluoro-3-(trifluoromethyl)anilino]methyl]pyrazol-1-yl] benzoic acid] | – | 2 (≈ 3.38 µM) | 2 (≈ 3.38 µM) | 2 (≈ 3.38 µM) | 1 (≈ 1.69 µM) | 1 (≈ 1.69 µM) | 1 (≈ 1.69 µM) | 2 (≈ 3.38 µM) | 1 (≈ 1.69 µM) | 1 (≈ 1.69 µM) | 1 (≈ 1.69 µM) | – | – | up to 4 times
10 | O=C(O)c1ccc(-n2cc(CNc3cc(Cl)c(F)cc3F)c(-c3cc(C(F)(F)F)cc(C(F)(F)F)c3)n2)cc1 [Compound 26, 4-[3-[3,5-Bis(trifluoromethyl)phenyl]-4-[(5-chloro-2,4-difluoro-anilino)methyl]pyraz-ol-1-yl] benzoic acid] | – | 1 (≈ 1.74 µM) | 4 (≈ 6.95 µM) | 2 (≈ 3.47 µM) | 2 (≈ 3.47 µM) | 1 (≈ 1.74 µM) | 0.25 (≈ 0.434 µM) | 0.25 (≈ 0.434 µM) | 0.25 (≈ 0.434 µM) | 2 (≈ 3.47 µM) | 1 (≈ 1.74 µM) | – | ≥ 0.25 | up to 4 times
